Experimental data as given in ChEMBL document CHEMBL1134788, “Oxindole derivatives as orally active potent growth hormone secretagogues” (J Med Chem, 2001).

Organism: Rattus norvegicus
Test: In vitro growth hormone releasing activity was measured in rat pituitary cells
Format: functional, cell-based
Details: Pituitary gland cell

SMILES | EC50 [nM]
CCN(CC)CCN1C(=O)C(O)(c2ccc3ccccc3c2)c2c1cc(C#CCO)cc2C(F)(F)F (centres undefined) | 310
CCN(CC)CCN1C(=O)C(O)(c2ccc3ccccc3c2)c2c(C#CCO)cc(Cl)cc21 (centres undefined) | > 1000
CCN(CC)CCN1C(=O)C(O)(c2ccc3ccccc3c2)c2cc(Br)ccc21 (centres undefined) | > 1000
CCN(CC)CCN1C(=O)C(O)(c2ccc3ccccc3c2)c2c(Br)cccc21 (centres undefined) | 77
CCN(CC)CCN1C(=O)C(O)(c2ccc3ccccc3c2)c2cccc(Br)c21 (centres undefined) | > 1000
CCN(CC)CCN1C(=O)C(O)(c2ccc3ccccc3c2)c2ccc(Br)cc21 (centres undefined) | 380
CCN(CC)CCN1C(=O)C(O)(c2ccc3ccccc3c2)c2ccccc21 (centres undefined) | > 1000
CCN(CC)CCN1C(=O)C(O)(c2ccc3ccccc3c2)c2c(Cl)cc(C#CCO)cc21 (centres undefined) | 310
CCN(CC)CCN1C(=O)[C@](O)(c2cc3ccccc3cc2Cl)c2c1cc(C(N)=O)cc2C(F)(F)F | 210
CCN(CC)CCN1C(=O)C(O)(c2ccc3ccccc3c2)c2c1cc(C#CCCC(=O)N1CCOCC1)cc2C(F)(F)F (centres undefined) | 30
CCN(CC)CCN1C(=O)C(O)(c2ccc3ccccc3c2)c2c1cc(C(N)=O)cc2C(F)(F)F (centres undefined) | 18
CCN(CC)CCN1C(=O)C(O)(c2ccc3ccccc3c2)c2c1cc(C#CCCC(N)=O)cc2C(F)(F)F (centres undefined) | 30
CCN(CC)CCN1C(=O)[C@@](O)(c2cc3ccccc3cc2Cl)c2c1cc(C(N)=O)cc2C(F)(F)F | 3
CCN(CC)CCN1C(=O)C(O)(c2cc3ccccc3cc2Cl)c2c1cc(C(N)=O)cc2C(F)(F)F (centres undefined) | 3.5
